Test systems include RXF 393 renal; A498 renal; MCF7 breast; SN12C renal; SK-MEL-2 melanoma; CCRF-CEM leukemia; HCT-15 colon; SNB-19 CNS; UO-31 renal; SK-OV-3 ovarian.
What all share (test): NCI-60 cell line screen, 48 h

“And” between values parts separate entries of the source, which are not always exact repeats. Identical values can stand only once.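 The compound was tested at five concentrations on cells cultured in 96-well plates, with a 48-hour exposure period. At the GI50, growth is halved. TGI marks complete inhibition of growth.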

For the molecule `[CH3][Sn]([CH3])([CH3])[O]C(=O)C(O)c1ccccc1` (stereo not given), the GI50 in the test on RXF 393 renal is 3 µM; in the test on A498 renal, 13.8 µM; in the test on MCF7 breast it was more than 100 µM; in the test on SN12C renal it was 8.7 µM; with SK-MEL-2 melanoma, 2.06 µM; in the test with CCRF-CEM leukemia it was 4.84 µM. The GI50 in the test with HCT-15 colon is 3.57 µM; in the test with SNB-19 CNS, 17 µM; in the test on UO-31 renal, 4.16 µM; in the test with SK-OV-3 ovarian, 10.1 µM. Also, the TGI is 7.43 µM with RXF 393 renal; 63.9 µM in the test on A498 renal; more than 100 µM in the test with MCF7 breast; 99 µM in the test with SN12C renal; 4.51 µM in the test on SK-MEL-2 melanoma; more than 73.5 µM with CCRF-CEM leukemia. The TGI in the test on HCT-15 colon is 19.1 µM; with SNB-19 CNS, more than 89.2 µM; with UO-31 renal, 31.5 µM; in the test on SK-OV-3 ovarian, 47.2 µM.
With `Cc1ccc2c(n1)C(=O)C(Cl)=C(Nc1ccc(N3CCN(C)CC3)cc1)C2=O`, the GI50 in the test with RXF 393 renal was 1.67 µM; in the test with A498 renal, 12.8 µM; with MCF7 breast, 2.04 µM; in the test on SN12C renal, 1.72 µM; in the test with SK-MEL-2 melanoma it was 1.87 µM; with CCRF-CEM leukemia, 3.07 µM. Further, the GI50 in the test on HCT-15 colon is 1.84 µM; in the test on SNB-19 CNS, 9.46 µM; in the test on UO-31 renal, 1.63 µM; with SK-OV-3 ovarian, 13 µM. Moreover, the TGI in the test on RXF 393 renal is 3.05 µM; in the test with A498 renal it was 25.6 µM; in the test with MCF7 breast, 5.17 µM; in the test on SN12C renal, 3.1 µM; with SK-MEL-2 melanoma, 3.56 µM; in the test with CCRF-CEM leukemia, 56.4 µM. Also, the TGI in the test with HCT-15 colon was found to be 3.93 µM; in the test on SNB-19 CNS, 21.7 µM; with UO-31 renal it was 2.98 µM; in the test with SK-OV-3 ovarian, 25.8 µM.
With `Cc1ccn2c(-c3csc(Nc4cccc(O)c4)n3)c(C)nc2c1`, the GI50 is 1.27 µM in the test with RXF 393 renal; 0.926 µM in the test with A498 renal; 0.311 µM in the test on MCF7 breast; 0.946 µM in the test on SN12C renal; 0.72 µM with SK-MEL-2 melanoma; 0.48 µM with CCRF-CEM leukemia. The GI50 with HCT-15 colon is 0.273 µM; with SNB-19 CNS it was 4.66 µM; in the test with UO-31 renal it was 0.977 µM; in the test with SK-OV-3 ovarian, 1.04 µM. Further, the TGI is 7.26 µM in the test on RXF 393 renal; 32.1 µM in the test with A498 renal; 27.3 µM in the test on MCF7 breast; 27.8 µM in the test on SN12C renal; 20.4 µM in the test on SK-MEL-2 melanoma; more than 33 µM in the test on CCRF-CEM leukemia. Besides, the TGI is 24 µM in the test with HCT-15 colon, 77.4 µM with SNB-19 CNS, 16.6 µM in the test with UO-31 renal and 11.8 µM in the test with SK-OV-3 ovarian.
`O=C(NCCSSCCNC(=O)/C(Cc1ccc(O)c(Br)c1)=N/O)/C(Cc1ccc(O)c(Br)c1)=N/O`: the TGI in the test on RXF 393 renal is 2 µM; in the test with A498 renal, 14.7 µM; in the test on MCF7 breast, 8.21 µM; in the test with SN12C renal it was 5.73 µM; in the test on SK-MEL-2 melanoma it was 3.26 µM; in the test with CCRF-CEM leukemia, more than 18.3 µM. Further, the TGI in the test on HCT-15 colon was found to be 14.4 µM; in the test with SNB-19 CNS it was 7.96 µM; with UO-31 renal, 8.58 µM; in the test with SK-OV-3 ovarian, 3.32 µM.
`N#Cc1ccc(N2Cc3cc(Cl)ccc3OC3=C2C(=O)N(Cc2ccc(F)cc2)C3=O)cc1`: the GI50 is 0.481 µM with RXF 393 renal; 3.26 µM with A498 renal; 0.712 µM with MCF7 breast; 0.567 µM in the test on SN12C renal; 0.314 µM with SK-MEL-2 melanoma; 0.229 µM with CCRF-CEM leukemia. For the same molecule, the GI50 in the test with HCT-15 colon is 0.543 µM; in the test on SNB-19 CNS it was 1.54 µM; with UO-31 renal, 0.436 µM; in the test on SK-OV-3 ovarian, 16.2 µM. Moreover, the TGI with RXF 393 renal stood at 0.943 µM; in the test on A498 renal, 15.3 µM; in the test with MCF7 breast, 3.03 µM; in the test with SN12C renal, 1.19 µM; with SK-MEL-2 melanoma, 0.867 µM; in the test on CCRF-CEM leukemia, 1.09 µM. Also, the TGI was 1.43 µM with HCT-15 colon, 9.24 µM in the test with SNB-19 CNS, 0.868 µM in the test on UO-31 renal and 55.7 µM in the test on SK-OV-3 ovarian.
Regarding `Cc1cc2oc(=O)c(Cl)c(Cl)c2c(C)c1Cl`, the TGI in the test with RXF 393 renal is 6.03 µM; in the test with A498 renal it was 34 µM; in the test with MCF7 breast it was 23.5 µM; in the test on SN12C renal, 24.5 µM; in the test on SK-MEL-2 melanoma, 26 µM; in the test with CCRF-CEM leukemia, 7.04 µM. The TGI in the test on HCT-15 colon is 14.3 µM; with SNB-19 CNS, 24.6 µM; with UO-31 renal it was 25.3 µM; in the test with SK-OV-3 ovarian it was 27.6 µM.
`O=C1c2ccccc2-c2c1c1c(O)cccc1n2CCCc1ccccc1`: the GI50 with RXF 393 renal was 5.87 µM; in the test with A498 renal, 17.3 µM; in the test on MCF7 breast it was 48.4 µM; with SN12C renal, 14 µM; in the test on SK-MEL-2 melanoma, 18.5 µM; with CCRF-CEM leukemia, 24.1 µM. Further, the GI50 in the test on HCT-15 colon is 4.11 µM; in the test with SNB-19 CNS it was 85.2 µM; with UO-31 renal, 7.66 µM; in the test on SK-OV-3 ovarian it was 84.3 µM. Further, the TGI is 68.5 µM in the test with RXF 393 renal; 43.2 µM in the test with A498 renal; more than 100 µM in the test with MCF7 breast; 67.9 µM in the test on SN12C renal; 87.3 µM with SK-MEL-2 melanoma; more than 100 µM with CCRF-CEM leukemia. Moreover, the TGI in the test on HCT-15 colon, with SNB-19 CNS, in the test with UO-31 renal and in the test with SK-OV-3 ovarian was more than 100 µM each time.
As for `O=C(NC1CCNCC1)c1[nH]ncc1NC(=O)c1c(Cl)cccc1Cl`, the GI50 with RXF 393 renal was 0.236 µM and 0.202 µM; with A498 renal, 0.552 µM and 0.698 µM; with MCF7 breast, 0.198 µM and 0.18 µM; in the test with SN12C renal, 1.24 µM and 0.387 µM; in the test with SK-MEL-2 melanoma, 0.216 µM and 0.303 µM; with CCRF-CEM leukemia, 0.331 µM and 0.335 µM. The GI50 is 9.83 µM and 9.93 µM in the test with HCT-15 colon; 0.361 µM and 0.336 µM in the test on SNB-19 CNS; 16.7 µM and > 7.2 µM in the test on UO-31 renal; 0.784 µM and 1.42 µM in the test on SK-OV-3 ovarian. Also, the TGI with RXF 393 renal is 0.635 µM and 0.464 µM; in the test with A498 renal, 1.77 µM and 1.78 µM; with MCF7 breast, more than 100 µM; in the test with SN12C renal, more than 50.3 µM; in the test with SK-MEL-2 melanoma, 0.519 µM and 1.14 µM; with CCRF-CEM leukemia, more than 100 µM. For the same molecule, the TGI is more than 100 µM in the test on HCT-15 colon, more than 60 µM with SNB-19 CNS, more than 76.6 µM in the test with UO-31 renal and more than 100 µM in the test on SK-OV-3 ovarian.

These data come from PubChem BioAssay (NCI).
